Patent US20210308034A1, “PREBIOTIC COMPOSITIONS AND METHODS FOR MAINTAINING A HEALTHY SKIN MICROBIOTA” (KIMBERLY-CLARK WORLDWIDE, INC., priority 2018, published 2021)
Where a SMILES comes first, the peptide text is derived from it.

Columns and labels:
Assay type in all cases: cell-based
[1] = system: Micrococcus luteus (SK58); experiment: Carbohydrate Screening Test Method (Biolog phenotype microarray), Bacteria Code E; settings: for Carbohydrate Screening Results, Bacteria Code E: Commensal, carbon microarray plate, OD 600 nm, 36 hr, 33° C., positive = more than 0.05 OD units above zero, blank cell = not utilized
From the text: (§1) After creating desired ratios of various commensal skin bacteria in a healthy skin microbiome, 188 different carbohydrate sources were screened as the next step in determining potential prospects for skin microbiota balancing agents. The screening process was set up to determine which carbohydrate sources promoted commensal and/or pathogenic bacteria as well as to obtain individual and combinations of carbohydrate sources that could serve as microbiota balancing agents that can support or maintain the healthy proportions of commensal skin bacteria of Corynebacterium, Staphylococcus, and Micrococcus. The screening was conducted utilizing Biolog phenotype microarray plates (Hayward, Calif.). Table 1 provides a coded list of the commensal and pathogenic skin bacteria that the carbohydrates were screened against.
(§2) The Bacteria Codes B, D, E, I, and J are commensal bacteria and are shaded in Table 2 for references purposes. The bacteria codes were each placed in a carbon microarray plate and screened through the Carbohydrate Screening Test Method, as described in the Test Methods section herein. If a particular bacteria code utilized a specific carbohydrate source as described in the Carbohydrate Screening Test Method, then the corresponding cell in Table 2 was marked with a Y (short for “Yes”).
(§3) To do so, the respective microarray data for the 79 carbohydrate sources was run through the GrowthRates 2.1 program to obtain growth parameters, such as growth rates and maximum yield data as described by the Belingham Research Institute, Hall, B. G., H. Acar and M. Barlow. 2014 Growth Rates Made Easy. Mol. Biol. Evol. 31:232-238 doi:10.1093/molbev/mst197. The max yield parameters generated were utilized to calculate ratios of tested commensal bacteria. The ratios calculated were compared back to the desired ratios identified above (Corynebacterium to Staphylococcus of 1.3, Corynebacterium to Micrococcus of 1.4, and Staphylococcus to Micrococcus of 1.1).
(§4) As an example of this methodology used to calculate the commensal bacteria ratios and the difference between the calculated ratios and the desired ratios, an example code from Table 3 will be described. […] The max yields were then used to calculate ratios the bacteria would reach in a co-culture.

[2] = system: Corynebacterium jeikum (ATCC 33033); experiment: Carbohydrate Screening Test Method (Biolog phenotype microarray), Bacteria Code B; settings: for Carbohydrate Screening Results, Bacteria Code B: Commensal, carbon microarray plate, OD 600 nm, 36 hr, 33° C., positive = more than 0.05 OD units above zero, blank cell = not utilized
Method: The screening process was set up to determine which carbohydrate sources promoted commensal and/or pathogenic bacteria as well as to obtain individual and combinations of carbohydrate sources that could serve as microbiota balancing agents that can support or maintain the healthy proportions of commensal skin bacteria of Corynebacterium, Staphylococcus, and Micrococcus. The screening was conducted utilizing Biolog phenotype microarray plates (Hayward, Calif.). Table 1 provides a coded list of the commensal and pathogenic skin bacteria that the carbohydrates were screened against.
as §2
as §3, with “2014 Growth Rates Made Easy.” left out, “31:232-238 doi:10.1093/molbev/mst197.” left out
as §4
A passage of the culture was made using a sterile swab and streaked onto two M9*2 agar plates to prepare the incubated culture for the phenotype microarray pate according to Table 4.
(§5) All cultures were harvested and washed before inoculation into the carbon microarray plate (BiOLOG, Hayward Calif.), with Biolog Plates PM1 and PM2 each having a source definition of Carbon. The bacteria on the M9*2 agar was suspended via agitation with an inoculating loop in 1 mL of M9*1 media for collection in a 1.7 mL micro centrifuge tube, as noted in Table 4.

[3] = system: Klebsiella pneumoniae (ATCC BAA-2146); settings: Pathogenic; carbon microarray plate, OD 600 nm, 36 hr, 33° C.; positive = more than 0.05 OD units above zero; blank cell = not utilized
From the text: as §1
Table 2 provides the results of screening various carbohydrate sources against the commensal and pathogenic bacteria codes listed in Table 1. The Bacteria Codes B, D, E, I, and J are commensal bacteria and are shaded in Table 2 for references purposes. The bacteria codes were each placed in a carbon microarray plate and screened through the Carbohydrate Screening Test Method, as described in the Test Methods section herein. If a particular bacteria code utilized a specific carbohydrate source as described in the Carbohydrate Screening Test Method, then the corresponding cell in Table 2 was marked with a Y (short for “Yes”). […] Many of the carbohydrate sources were utilized by both commensal and pathogenic bacteria, and as such, would not provide an advantage for selective growth of the commensal bacteria. However, some of the carbohydrate sources were only used by commensal bacteria and were identified for further testing as described herein.
The study employed 10 representative skin bacteria; Staphylococcus epidermidis ATCC 14990, Staphylococcus epidermidis M23864:W2, Staphylococcus aureus ATCC 6538, Staphylococcus aureus ATCC 25904 (Newman), Pseudomonas aeruginosa ATCC 9027, Micrococcus luteus ATCC […], Micrococcus luteus SK58, Klebsiella pneumoniae ATCC BAA-2146, Corynebacterium amycolatum SK46, and Corynebacterium minutissimum ATCC 23348. Cultures were started from freezer bead stocks by placing a single bead into 20 mL of tryptic soy broth (TSB) for all organisms except C. amycolatum SK46 and C. minutissimum ATCC 23348, which were placed into brain heart infusion (BHI) broth. Cultures were grown for about 24 hr at 37° C. except M. luteus ATCC 49732 and M. luteus SK58, which were grown at 30° C. A passage of the culture was made using a sterile swab and streaked onto two M9*2 agar plates to prepare the incubated culture for the phenotype microarray pate according to Table 4. Plates were incubated for about 24 hr at 37° C. except for M. luteus ATCC 49732 and M. luteus SK58, which were incubated at 30° C. for 24 hr.
as §5, with “4. The bacteria was suspended again in M9*1 media, agitated, and collected into the same 1.7 mL microcentrifuge tube used in the previous step. The tube was centrifuged for 5 minutes at 4,000×G, supernatant decanted, the pellet was resuspended in 1 mL of M9*1 media, and vortex. This washing process was repeated for a total of 4 times.” for “4.”
A tenfold dilution in M9*1 media was performed using 1 mL of the washed bacterial culture. Of the tenfold dilution 200 μL was placed in an untreated 96-well plate (Falcon, Pasadena Tx.) for an initial optical density (OD) reading at a wavelength of 600 nm. The OD was used to correlate to colony forming units (CFU) per milliliter by using linear regression lines for each organism. […]

CC(O)CO (centres unmarked) [1,2-Propanediol]
Carbohydrate Screening Results, Bacteria Code E [1]: Y | Carbohydrate Screening Results, Bacteria Code B [2]: Y

O=C[C@@H](O)[C@H](O[C@@H]1O[C@H](CO)[C@H](O)[C@H](O)[C@H]1O)[C@H](O)CO [3-0-β-D-Galacto-pyranosyl-D-Arabinose]
Carbohydrate Screening Results, Bacteria Code C [3]: Y

CC(=O)CC(=O)O [Acetoacetic Acid]
Carbohydrate Screening Results, Bacteria Code E [1]: Y | Carbohydrate Screening Results, Bacteria Code B [2]: Y

Nc1ncnc2c1ncn2[C@@H]1O[C@H](CO)[C@@H](O)[C@H]1O [Adenosine]
Carbohydrate Screening Results, Bacteria Code E [1]: Y | Carbohydrate Screening Results, Bacteria Code B [2]: Y

OC[C@H]1O[C@@H](Oc2ccc(O)cc2)[C@H](O)[C@@H](O)[C@@H]1O [Arbutin]
Carbohydrate Screening Results, Bacteria Code C [3]: Y

O=C(O)CC(Br)C(=O)O (centres unmarked) [Bromo Succinic Acid]
Carbohydrate Screening Results, Bacteria Code B [2]: Y

O=C(O)CC(O)(CC(=O)O)C(=O)O [Citric Acid]
Carbohydrate Screening Results, Bacteria Code B [2]: Y

C[C@@H](N)C(=O)O [D-Alanine]
Carbohydrate Screening Results, Bacteria Code E [1]: Y | max yield ([1]; M. luteus SK58, GrowthRates 2.1 on microarray data): 0.098 | max yield ([2]; C. jeikeium, GrowthRates 2.1 on microarray data): 0.157 | Carbohydrate Screening Results, Bacteria Code B [2]: Y

N[C@H](CC(=O)O)C(=O)O [D-Aspartic Acid]
Carbohydrate Screening Results, Bacteria Code E [1]: Y | Carbohydrate Screening Results, Bacteria Code B [2]: Y

N[C@@H](C(=O)O)[C@@H](O)[C@H](O)[C@H](O)CO [D-Glucosaminic Acid]
Carbohydrate Screening Results, Bacteria Code E [1]: Y

COC(=O)[C@@H](C)O [D-Lactic Acid Methyl Ester]
Carbohydrate Screening Results, Bacteria Code C [3]: Y

C[C@H](O)[C@@H](N)C(=O)O [D-Threonine]
Carbohydrate Screening Results, Bacteria Code E [1]: Y | Carbohydrate Screening Results, Bacteria Code B [2]: Y

OC[C@@H](O)[C@H](O)[C@H](O)[C@@H](O)CO [Dulcitol]
Carbohydrate Screening Results, Bacteria Code E [1]: Y | Carbohydrate Screening Results, Bacteria Code B [2]: Y

O=CO [Formic Acid]
Carbohydrate Screening Results, Bacteria Code E [1]: Y | Carbohydrate Screening Results, Bacteria Code B [2]: Y

O=C(O)/C=C/C(=O)O [Fumaric Acid]
Carbohydrate Screening Results, Bacteria Code E [1]: Y | Carbohydrate Screening Results, Bacteria Code B [2]: Y

NC(=O)[C@@H](O)[C@@H](O)[C@H](O)[C@@H](O)C=O [Glucuronamide]
Carbohydrate Screening Results, Bacteria Code E [1]: Y | Carbohydrate Screening Results, Bacteria Code B [2]: Y

O=C(O)CO [Glycolic Acid]
Carbohydrate Screening Results, Bacteria Code E [1]: Y | Carbohydrate Screening Results, Bacteria Code B [2]: Y

NCC(=O)N[C@@H](CC(=O)O)C(=O)O [Glycyl-L-Aspartic Acid] (H-Gly-Asp-OH)
Carbohydrate Screening Results, Bacteria Code E [1]: Y

NCC(=O)N[C@@H](CCC(=O)O)C(=O)O [Glycyl-L-Glutamic Acid] (H-Gly-Glu-OH)
Carbohydrate Screening Results, Bacteria Code E [1]: Y

O=CC(=O)O [Glyoxylic Acid]
Carbohydrate Screening Results, Bacteria Code B [2]: Y

C[C@H](N)C(=O)O [L-Alanine]
Carbohydrate Screening Results, Bacteria Code E [1]: Y

C[C@H](N)C(=O)NCC(=O)O [L-Alanyl-Glycine] (H-Ala-Gly-OH)
Carbohydrate Screening Results, Bacteria Code E [1]: Y | Carbohydrate Screening Results, Bacteria Code B [2]: Y

O=C(O)C[C@H](O)C(=O)O [L-Malic Acid]
Carbohydrate Screening Results, Bacteria Code E [1]: Y | Carbohydrate Screening Results, Bacteria Code B [2]: Y

O=C(O)[C@@H]1CCCN1 [L-Proline]
Carbohydrate Screening Results, Bacteria Code E [1]: Y | Carbohydrate Screening Results, Bacteria Code B [2]: Y

C[C@@H](O)[C@H](N)C(=O)O [L-Threonine]
Carbohydrate Screening Results, Bacteria Code E [1]: Y | Carbohydrate Screening Results, Bacteria Code B [2]: Y

O=C(O)[C@@H](O)[C@H](O)[C@H](O)[C@@H](O)C(=O)O [Mucic Acid]
Carbohydrate Screening Results, Bacteria Code B [2]: Y

CC(=O)N[C@H]1[C@@H](O)[C@H](O)[C@@H](CO)O[C@H]1O [N-Acetyl-β-D-Mannosamine]
Carbohydrate Screening Results, Bacteria Code E [1]: Y | Carbohydrate Screening Results, Bacteria Code B [2]: Y

NCCc1ccccc1 [Phenylethyl-amine]
Carbohydrate Screening Results, Bacteria Code B [2]: Y

CCC(=O)O [Propionic Acid]
Carbohydrate Screening Results, Bacteria Code E [1]: Y | Carbohydrate Screening Results, Bacteria Code B [2]: Y

O=C(O)CC(CC(=O)O)C(=O)O [Tricarballylic Acid]
Carbohydrate Screening Results, Bacteria Code E [1]: Y

O=C(O)C(O)C(O)C(=O)O (centres unmarked) [m-Tartaric Acid]
Carbohydrate Screening Results, Bacteria Code B [2]: Y

CCC(O)C(=O)O (stereo not drawn) [α-Hydroxy Butyric Acid]
Carbohydrate Screening Results, Bacteria Code B [2]: Y

O=C1CCC(C(=O)O)O1 (stereo not drawn) [α-Hydroxy Glutaric Acid-γ-Lactone]
Carbohydrate Screening Results, Bacteria Code E [1]: Y | Carbohydrate Screening Results, Bacteria Code B [2]: Y

CCC(=O)C(=O)O [α-Keto-Butyric Acid]
Carbohydrate Screening Results, Bacteria Code B [2]: Y

O=C(O)CCC(=O)C(=O)O [α-Keto-Glutaric Acid]
Carbohydrate Screening Results, Bacteria Code B [2]: Y

Tween 40
Carbohydrate Screening Results, Bacteria Code B [2]: Y
